Source: article PMC7316778 (Nature Communications, 2020)
“And” between values parts separate entries of the source, which are not always exact repeats. Identical values can stand only once. Like-named read-outs stand apart in the source and are kept apart here.

Columns and labels:
HCK = HCK (Homo sapiens, UniProt P08631); assay: SelectScreen kinase assay
Procedure: (§1) Selectivity profiling assays were performed by the Invitrogen SelectScreen™ Services. […] The concentration of ATP was selected to be equal to the KM, unless indicated otherwise.

PI4K2B (PI4K2 beta) = PI4K2B (PI4K2 beta) (Homo sapiens, UniProt Q8TCG2); assay: SelectScreen kinase assay; details: for Inhibition at 1 µM (%): PI4K2B (PI4K2 beta), Adapta, ATP 10
Procedure: as §1

PRKCH (PKC eta) = PRKCH (PKC eta) (Homo sapiens, UniProt P24723); assay: SelectScreen kinase assay; details: 1 h, 1 μM WEL028, 1 h preincubation
Procedure: as §1

full-length FES^S700C = full-length FES^S700C (Homo sapiens, UniProt P07332, S700C); assay: Competitive probe labeling with WEL033 in HEK293T lysate (gel-based)
BMPR1B (ALK6) = BMPR1B (ALK6) (Homo sapiens, UniProt O00238); assay: SelectScreen kinase assay
Procedure: as §1

FES^S700C = FES^S700C (Homo sapiens, UniProt P07332, S700C); assay: Time-dependent probe displacement by WEL033 in lysate
ITK = molecular target: T1, ITK (Homo sapiens, UniProt Q08881); assay: SelectScreen kinase assay; details: for Inhibition at 1 µM (%): ITK, ZLYTE, ATP Km app
T1 sequence (Q08881 1-620): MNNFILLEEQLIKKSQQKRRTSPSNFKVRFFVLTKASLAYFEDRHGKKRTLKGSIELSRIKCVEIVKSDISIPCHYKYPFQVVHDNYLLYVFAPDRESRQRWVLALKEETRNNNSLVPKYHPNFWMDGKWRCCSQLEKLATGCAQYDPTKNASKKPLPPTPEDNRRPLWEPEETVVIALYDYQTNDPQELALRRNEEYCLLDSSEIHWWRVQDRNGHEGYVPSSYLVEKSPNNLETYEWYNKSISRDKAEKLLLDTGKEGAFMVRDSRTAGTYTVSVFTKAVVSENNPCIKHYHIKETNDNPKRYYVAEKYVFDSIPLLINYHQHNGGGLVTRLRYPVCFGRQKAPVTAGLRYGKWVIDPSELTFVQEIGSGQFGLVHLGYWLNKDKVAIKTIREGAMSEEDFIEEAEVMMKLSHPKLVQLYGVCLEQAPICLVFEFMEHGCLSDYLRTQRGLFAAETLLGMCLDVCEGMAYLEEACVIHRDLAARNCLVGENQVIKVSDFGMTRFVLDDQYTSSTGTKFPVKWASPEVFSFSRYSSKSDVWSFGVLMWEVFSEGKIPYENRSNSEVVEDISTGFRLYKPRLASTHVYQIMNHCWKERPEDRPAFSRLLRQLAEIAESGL
Procedure: as §1

CAMK2A (CaMKII alpha) = CAMK2A (CaMKII alpha) (Homo sapiens, UniProt Q9UQM7); assay: SelectScreen kinase assay
Procedure: as §1

STK33 = STK33 (Homo sapiens, UniProt Q9BYT3); assay: SelectScreen kinase assay
Procedure: as §1

CSNK1D (CK1 delta) = CSNK1D (CK1 delta) (Homo sapiens, UniProt P48730); assay: SelectScreen kinase assay; details: 1 h, 1 μM WEL028, 1 h preincubation
Procedure: as §1

BRSK1 (SAD1) = molecular target: T2, BRSK1 (SAD1) (Homo sapiens, UniProt Q8TDC3); assay: SelectScreen kinase assay
T2 sequence (Q8TDC3 1-778): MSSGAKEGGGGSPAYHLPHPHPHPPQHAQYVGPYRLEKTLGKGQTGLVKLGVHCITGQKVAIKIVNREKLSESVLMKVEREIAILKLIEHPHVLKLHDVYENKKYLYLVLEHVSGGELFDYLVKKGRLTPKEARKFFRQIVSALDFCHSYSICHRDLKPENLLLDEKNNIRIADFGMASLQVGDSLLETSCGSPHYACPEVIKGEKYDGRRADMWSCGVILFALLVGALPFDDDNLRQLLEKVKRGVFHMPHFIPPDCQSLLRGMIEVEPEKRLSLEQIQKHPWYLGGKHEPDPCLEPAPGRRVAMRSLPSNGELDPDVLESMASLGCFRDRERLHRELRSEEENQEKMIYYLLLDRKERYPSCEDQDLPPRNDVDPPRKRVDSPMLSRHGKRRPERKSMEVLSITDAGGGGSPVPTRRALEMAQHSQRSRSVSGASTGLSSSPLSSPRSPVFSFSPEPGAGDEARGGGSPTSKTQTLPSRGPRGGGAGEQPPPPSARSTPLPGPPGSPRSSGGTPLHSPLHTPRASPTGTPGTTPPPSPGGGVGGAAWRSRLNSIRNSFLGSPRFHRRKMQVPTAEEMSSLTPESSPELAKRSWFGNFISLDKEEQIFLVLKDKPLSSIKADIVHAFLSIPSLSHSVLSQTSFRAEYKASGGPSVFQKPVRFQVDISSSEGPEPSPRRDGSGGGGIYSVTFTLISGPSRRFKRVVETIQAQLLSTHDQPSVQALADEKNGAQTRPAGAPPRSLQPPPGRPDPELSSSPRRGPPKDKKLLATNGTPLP
Procedure: as §1

NLK = NLK (Homo sapiens, UniProt Q9UBE8); assay: SelectScreen kinase assay
Procedure: as §1

RPS6KA6 (RSK4) = RPS6KA6 (RSK4) (Homo sapiens, UniProt Q9UK32); assay: SelectScreen kinase assay
Procedure: as §1

STK3 (MST2) = STK3 (MST2) (Homo sapiens, UniProt Q13188); assay: SelectScreen kinase assay
Procedure: as §1

CSNK1G1 (CK1 gamma 1) = CSNK1G1 (CK1 gamma 1) (Homo sapiens, UniProt Q9HCP0); assay: SelectScreen kinase assay; details: for Inhibition at 1 µM (%): CSNK1G1 (CK1 gamma 1), ZLYTE, ATP Km app
Procedure: as §1

[1] = 1 h, 1 μM WEL028, 1 h preincubation

Sequence of RPS6KA6 (RSK4) (Q9UK32 whole entry): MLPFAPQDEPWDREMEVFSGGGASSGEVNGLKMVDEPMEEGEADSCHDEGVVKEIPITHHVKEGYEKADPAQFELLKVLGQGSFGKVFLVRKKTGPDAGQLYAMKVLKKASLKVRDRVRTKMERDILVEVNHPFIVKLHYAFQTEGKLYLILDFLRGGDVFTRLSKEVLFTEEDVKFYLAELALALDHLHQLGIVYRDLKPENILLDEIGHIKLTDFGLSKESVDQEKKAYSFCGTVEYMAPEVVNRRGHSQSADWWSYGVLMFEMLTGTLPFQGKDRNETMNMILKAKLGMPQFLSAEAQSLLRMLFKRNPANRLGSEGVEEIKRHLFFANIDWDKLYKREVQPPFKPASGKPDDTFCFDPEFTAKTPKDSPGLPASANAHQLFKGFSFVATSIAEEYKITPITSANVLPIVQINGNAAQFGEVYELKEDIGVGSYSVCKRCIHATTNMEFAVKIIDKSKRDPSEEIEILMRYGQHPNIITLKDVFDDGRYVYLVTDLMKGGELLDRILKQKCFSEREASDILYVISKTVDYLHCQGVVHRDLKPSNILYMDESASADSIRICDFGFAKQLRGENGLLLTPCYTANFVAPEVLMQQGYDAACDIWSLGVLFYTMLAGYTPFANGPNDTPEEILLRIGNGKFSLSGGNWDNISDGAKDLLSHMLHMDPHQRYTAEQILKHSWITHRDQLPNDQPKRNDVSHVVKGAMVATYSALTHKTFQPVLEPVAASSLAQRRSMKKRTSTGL
Sequence of STK33 (Q9BYT3 whole entry, species assumed): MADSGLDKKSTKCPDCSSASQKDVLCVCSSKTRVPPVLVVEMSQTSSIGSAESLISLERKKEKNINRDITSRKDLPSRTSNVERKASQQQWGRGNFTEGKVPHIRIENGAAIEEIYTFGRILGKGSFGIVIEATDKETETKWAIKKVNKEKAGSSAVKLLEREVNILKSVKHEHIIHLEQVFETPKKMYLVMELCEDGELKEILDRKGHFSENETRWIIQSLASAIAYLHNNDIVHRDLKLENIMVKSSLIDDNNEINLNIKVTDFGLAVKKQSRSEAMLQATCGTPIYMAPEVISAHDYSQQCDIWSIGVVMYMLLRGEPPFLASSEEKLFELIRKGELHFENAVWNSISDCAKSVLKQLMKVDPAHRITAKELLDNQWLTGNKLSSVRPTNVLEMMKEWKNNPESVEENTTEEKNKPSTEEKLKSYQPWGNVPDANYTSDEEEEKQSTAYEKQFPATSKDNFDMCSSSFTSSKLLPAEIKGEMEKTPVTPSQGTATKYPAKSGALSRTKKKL
Sequence of HCK (P08631 whole entry): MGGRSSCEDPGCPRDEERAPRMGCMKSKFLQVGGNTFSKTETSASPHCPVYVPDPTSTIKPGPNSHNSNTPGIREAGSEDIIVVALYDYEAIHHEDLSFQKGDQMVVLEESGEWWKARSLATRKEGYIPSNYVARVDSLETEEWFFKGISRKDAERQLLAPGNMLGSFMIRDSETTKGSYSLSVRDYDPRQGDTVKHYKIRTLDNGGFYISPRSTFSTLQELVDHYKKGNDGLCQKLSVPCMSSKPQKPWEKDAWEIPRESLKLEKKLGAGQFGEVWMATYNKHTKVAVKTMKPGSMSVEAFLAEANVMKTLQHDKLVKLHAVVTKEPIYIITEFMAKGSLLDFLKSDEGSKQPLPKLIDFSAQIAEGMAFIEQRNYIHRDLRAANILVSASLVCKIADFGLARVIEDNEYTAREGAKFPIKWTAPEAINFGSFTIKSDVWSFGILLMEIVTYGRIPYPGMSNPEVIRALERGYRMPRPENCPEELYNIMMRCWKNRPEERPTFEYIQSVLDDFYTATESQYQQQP
Sequence of CSNK1G1 (CK1 gamma 1) (Q9HCP0 whole entry): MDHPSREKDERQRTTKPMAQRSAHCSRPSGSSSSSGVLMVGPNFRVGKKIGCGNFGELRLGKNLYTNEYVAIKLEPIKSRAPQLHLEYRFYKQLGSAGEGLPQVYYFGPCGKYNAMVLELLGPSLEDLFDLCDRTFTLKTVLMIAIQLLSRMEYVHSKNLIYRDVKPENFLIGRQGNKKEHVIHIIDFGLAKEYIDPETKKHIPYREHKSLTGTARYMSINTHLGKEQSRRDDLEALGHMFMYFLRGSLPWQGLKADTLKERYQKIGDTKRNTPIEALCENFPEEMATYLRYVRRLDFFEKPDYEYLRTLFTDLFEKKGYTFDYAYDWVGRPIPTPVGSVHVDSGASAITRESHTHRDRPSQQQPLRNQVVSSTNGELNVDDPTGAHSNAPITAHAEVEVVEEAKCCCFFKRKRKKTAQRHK
Sequence of PI4K2B (PI4K2 beta) (Q8TCG2 whole entry): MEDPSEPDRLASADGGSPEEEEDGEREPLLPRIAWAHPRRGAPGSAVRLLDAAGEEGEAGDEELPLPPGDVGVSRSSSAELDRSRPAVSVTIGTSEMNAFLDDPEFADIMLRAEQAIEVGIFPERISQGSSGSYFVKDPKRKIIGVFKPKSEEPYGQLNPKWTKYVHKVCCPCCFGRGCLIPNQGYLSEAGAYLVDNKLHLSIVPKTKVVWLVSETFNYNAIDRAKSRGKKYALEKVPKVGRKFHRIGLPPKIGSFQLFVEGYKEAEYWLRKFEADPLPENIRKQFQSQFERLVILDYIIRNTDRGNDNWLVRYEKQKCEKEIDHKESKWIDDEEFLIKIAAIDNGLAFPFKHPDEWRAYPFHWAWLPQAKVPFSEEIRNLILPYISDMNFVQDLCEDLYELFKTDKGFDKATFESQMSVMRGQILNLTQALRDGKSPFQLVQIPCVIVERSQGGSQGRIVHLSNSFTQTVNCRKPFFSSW
Sequence of CAMK2A (CaMKII alpha) (Q9UQM7 whole entry): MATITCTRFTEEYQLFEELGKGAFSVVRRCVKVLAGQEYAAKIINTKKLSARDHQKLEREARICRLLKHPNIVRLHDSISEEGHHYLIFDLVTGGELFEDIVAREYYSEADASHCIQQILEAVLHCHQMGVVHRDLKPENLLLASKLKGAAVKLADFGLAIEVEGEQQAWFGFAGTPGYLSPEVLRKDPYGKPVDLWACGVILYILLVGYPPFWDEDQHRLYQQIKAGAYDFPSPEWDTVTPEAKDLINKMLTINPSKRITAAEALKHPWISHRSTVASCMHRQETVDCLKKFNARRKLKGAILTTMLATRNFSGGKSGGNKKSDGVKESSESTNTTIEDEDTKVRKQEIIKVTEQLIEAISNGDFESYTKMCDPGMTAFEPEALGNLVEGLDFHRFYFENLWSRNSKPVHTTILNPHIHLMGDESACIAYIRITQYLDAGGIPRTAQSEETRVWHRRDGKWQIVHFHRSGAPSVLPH
Sequence of BMPR1B (ALK6) (O00238 14-502): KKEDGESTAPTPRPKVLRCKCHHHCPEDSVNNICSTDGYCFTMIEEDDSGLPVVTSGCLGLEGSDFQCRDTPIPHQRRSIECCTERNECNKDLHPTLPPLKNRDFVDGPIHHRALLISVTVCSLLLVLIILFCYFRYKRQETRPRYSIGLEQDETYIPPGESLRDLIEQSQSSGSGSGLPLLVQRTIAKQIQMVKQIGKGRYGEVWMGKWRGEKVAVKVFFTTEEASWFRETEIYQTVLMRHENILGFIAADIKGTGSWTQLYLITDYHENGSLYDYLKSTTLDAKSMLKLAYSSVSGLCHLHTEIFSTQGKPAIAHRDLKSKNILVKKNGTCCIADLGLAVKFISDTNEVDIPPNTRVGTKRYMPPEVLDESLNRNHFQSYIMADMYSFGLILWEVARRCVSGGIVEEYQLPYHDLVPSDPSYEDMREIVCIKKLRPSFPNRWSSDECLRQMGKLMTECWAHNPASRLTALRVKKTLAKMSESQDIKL
Sequence of FES^S700C (P07332 whole entry S700C): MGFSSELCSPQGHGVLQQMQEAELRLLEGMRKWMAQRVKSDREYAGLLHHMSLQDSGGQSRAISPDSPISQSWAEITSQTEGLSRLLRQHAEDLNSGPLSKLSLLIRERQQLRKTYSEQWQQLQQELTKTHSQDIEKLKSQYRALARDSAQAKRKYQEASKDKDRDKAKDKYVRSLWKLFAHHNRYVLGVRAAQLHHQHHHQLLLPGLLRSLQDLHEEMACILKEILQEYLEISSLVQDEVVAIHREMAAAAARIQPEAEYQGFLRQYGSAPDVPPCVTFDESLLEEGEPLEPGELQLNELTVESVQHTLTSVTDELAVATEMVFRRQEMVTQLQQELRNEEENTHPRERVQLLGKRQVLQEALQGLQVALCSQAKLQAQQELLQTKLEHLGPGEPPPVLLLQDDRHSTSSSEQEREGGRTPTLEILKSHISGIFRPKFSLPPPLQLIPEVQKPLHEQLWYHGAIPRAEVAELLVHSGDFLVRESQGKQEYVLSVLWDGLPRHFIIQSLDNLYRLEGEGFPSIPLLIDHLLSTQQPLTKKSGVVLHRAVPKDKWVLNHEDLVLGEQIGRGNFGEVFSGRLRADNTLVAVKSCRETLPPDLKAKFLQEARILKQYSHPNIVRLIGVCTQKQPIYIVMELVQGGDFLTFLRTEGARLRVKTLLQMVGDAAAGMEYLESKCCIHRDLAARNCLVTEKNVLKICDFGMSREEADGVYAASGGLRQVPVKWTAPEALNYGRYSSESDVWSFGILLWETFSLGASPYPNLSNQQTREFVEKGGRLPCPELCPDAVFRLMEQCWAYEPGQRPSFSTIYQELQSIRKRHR
Sequence of STK3 (MST2) (Q13188 whole entry): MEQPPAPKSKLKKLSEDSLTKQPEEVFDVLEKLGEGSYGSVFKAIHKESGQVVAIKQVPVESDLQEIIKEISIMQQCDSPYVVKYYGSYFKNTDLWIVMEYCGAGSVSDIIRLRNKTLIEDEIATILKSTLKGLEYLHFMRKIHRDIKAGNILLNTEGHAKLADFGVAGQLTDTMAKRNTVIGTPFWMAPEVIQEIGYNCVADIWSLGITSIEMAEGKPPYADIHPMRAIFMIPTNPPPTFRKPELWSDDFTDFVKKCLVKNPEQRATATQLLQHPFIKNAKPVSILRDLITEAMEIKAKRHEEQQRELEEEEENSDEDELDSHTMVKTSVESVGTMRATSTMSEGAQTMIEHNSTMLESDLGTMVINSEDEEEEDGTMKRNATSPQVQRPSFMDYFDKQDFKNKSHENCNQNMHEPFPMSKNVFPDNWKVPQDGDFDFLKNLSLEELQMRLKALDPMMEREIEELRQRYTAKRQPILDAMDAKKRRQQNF
Sequence of full-length FES^S700C (P07332 whole entry S700C): as the sequence (P07332 whole entry S700C) above

C#CCOc1ccc(Nc2ncc(Cl)c(Nc3ccccc3NC(=O)C=C)n2)c(OC)c1 [Compound 6]
inhibition at 1 µM (HCK; [1]): 6% | Inhibition at 1 µM (%) (HCK; HCK, 1 µM, ZLYTE, ATP Km app, listed as WEL028, 1 µM): 7% | inhibition at 1 µM (HCK; read-out: Inhibition at 1 µM (%), HCK, 1 µM, ZLYTE, ATP Km app): 4% | inhibition at 1 µM (PI4K2B (PI4K2 beta); [1]): 2% | Inhibition at 1 µM (%) (PI4K2B (PI4K2 beta)): 3% | Inhibition at 1 µM (%) (PI4K2B (PI4K2 beta); listed as WEL028, 1 µM): 0% | inhibition at 1 µM (PRKCH (PKC eta)): -4% | IC50 (full-length FES^S700C): 12.6 nM | inhibition at 1 µM (BMPR1B (ALK6); 1 h): 24% | inhibition at 1 µM (BMPR1B (ALK6); read-out: Inhibition at 1 µM (%)): 24% | IC80 (FES^S700C; read-out: IC80-concentration (20% remaining activity)): 27 nM | Mode of action (FES^S700C; recovery of WEL033 labeling after inhibitor at IC80): irreversible | Inhibition (%) (ITK; 1 μM WEL028, 1 h preincubation): -7% | Inhibition at 1 µM (%) (ITK): -3% | Inhibition at 1 µM (%) (ITK; listed as WEL028, 1 µM): -10% | inhibition at 1 µM (CAMK2A (CaMKII alpha); [1]): -6% | Inhibition at 1 µM (%) (CAMK2A (CaMKII alpha); CAMK2A (CaMKII alpha), 1 µM, ZLYTE, ATP Km app, listed as WEL028, 1 µM): -7% and -5% | IC50 (STK33): 1000 nM | Inhibition at 1 µM (%) (STK33; 1 µM, LanthaScreen Binding, listed as WEL028, 1 µM): 61% | inhibition at 1 µM (STK33; [1]): 60% | inhibition at 10 µM (STK33; 1 h, log[inhibitor] (M) -5.00, LanthaScreen Binding): 33% | inhibition at 3.311 µM (STK33; 1 h, log[inhibitor] (M) -5.48, LanthaScreen Binding): 58% | inhibition at 1.122 µM (STK33; 1 h, log[inhibitor] (M) -5.95, LanthaScreen Binding): 69% | inhibition at 0.3715 µM (STK33; 1 h, log[inhibitor] (M) -6.43, LanthaScreen Binding): 43% | inhibition at 0.123 µM (STK33; 1 h, log[inhibitor] (M) -6.91, LanthaScreen Binding): 23% | inhibition at 0.04074 µM (STK33; 1 h, log[inhibitor] (M) -7.39, LanthaScreen Binding): 19% | inhibition at 0.0138 µM (STK33; 1 h, log[inhibitor] (M) -7.86, LanthaScreen Binding): 6% | inhibition at 0.004571 µM (STK33; 1 h, log[inhibitor] (M) -[…], LanthaScreen Binding): 7% | Apparent fold selectivity (STK33; IC50 on that kinase divided by IC50 on FES^S700C): 254 fold | inhibition at 1 µM (STK33; read-out: Inhibition at 1 µM (%), 1 µM, LanthaScreen Binding): 59% | inhibition at 1 µM (CSNK1D (CK1 delta)): 18% | inhibition at 1 µM (BRSK1 (SAD1); [1]): 2% | Inhibition at 1 µM (%) (BRSK1 (SAD1); BRSK1 (SAD1), 1 µM, ZLYTE, ATP Km app, listed as WEL028, 1 µM): 1% | inhibition at 1 µM (BRSK1 (SAD1); read-out: Inhibition at 1 µM (%), BRSK1 (SAD1), 1 µM, ZLYTE, ATP Km app): 2% | inhibition at 1 µM (NLK; [1]): 3% | inhibition at 1 µM (NLK; read-out: Inhibition at 1 µM (%), NLK, 1 µM, LanthaScreen Binding): 4% | Inhibition (%) (RPS6KA6 (RSK4); 1 μM WEL028, 1 h preincubation): 5% | Inhibition at 1 µM (%) (RPS6KA6 (RSK4); 1 µM, ZLYTE, ATP Km app, listed as WEL028, 1 µM): 1% and 9% | Inhibition at 1 µM (%) (STK3 (MST2); 1 µM, ZLYTE, ATP Km app): 15% | inhibition at 1 µM (STK3 (MST2); [1]): 5% | Inhibition (%) (CSNK1G1 (CK1 gamma 1); 1 μM WEL028, 1 h preincubation): 4% | Inhibition at 1 µM (%) (CSNK1G1 (CK1 gamma 1)): 2% | Inhibition at 1 µM (%) (CSNK1G1 (CK1 gamma 1); listed as WEL028, 1 µM): 7%
